This note sets out measurements from ChEMBL document CHEMBL4831484, “Identification of 3, 4-disubstituted pyridine derivatives as novel CDK8 inhibitors” (Eur J Med Chem, 2021).

Series [1] deals with CDK8/Cyclin C (Homo sapiens) (UniProt P49336+P24863). The series is described as follows: Inhibition of CDK8/Cyclin C (unknown origin) at 10 uM measured after 1 hr by plate reader assay relative to control. Type of series: protein-complex assay.
For series [2], the system named is HCT-116. The series is described as follows: Antiproliferative activity against human HCT-116 cells assessed as inhibition of cell growth measured after 72 hrs by […]. Type of series: functional. Background: Tetrazolium dyes change colour on reduction, which living cells bring about.
The target in series [3] is CDK8/Cyclin C (Homo sapiens, UniProt P49336). As to the kind of experiment: Inhibition of CDK8/Cyclin C (unknown origin) measured after 1 hr by plate reader assay. Type of series: protein-complex assay.
Sequence of CDK8/Cyclin C (P49336 whole entry): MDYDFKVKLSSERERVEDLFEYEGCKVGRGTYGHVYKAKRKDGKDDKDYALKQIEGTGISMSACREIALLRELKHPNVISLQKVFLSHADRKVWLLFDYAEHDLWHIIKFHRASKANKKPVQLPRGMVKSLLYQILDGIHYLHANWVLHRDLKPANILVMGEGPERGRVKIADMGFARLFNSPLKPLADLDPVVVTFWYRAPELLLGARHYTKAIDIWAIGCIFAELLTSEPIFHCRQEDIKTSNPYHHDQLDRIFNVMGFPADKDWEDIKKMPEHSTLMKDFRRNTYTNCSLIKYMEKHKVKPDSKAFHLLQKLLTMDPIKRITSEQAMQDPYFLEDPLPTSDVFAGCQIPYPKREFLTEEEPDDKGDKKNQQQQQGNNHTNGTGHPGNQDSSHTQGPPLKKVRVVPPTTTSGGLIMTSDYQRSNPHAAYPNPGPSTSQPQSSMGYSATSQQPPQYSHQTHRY
Sequence of CDK8/Cyclin C (P24863 whole entry, further chain): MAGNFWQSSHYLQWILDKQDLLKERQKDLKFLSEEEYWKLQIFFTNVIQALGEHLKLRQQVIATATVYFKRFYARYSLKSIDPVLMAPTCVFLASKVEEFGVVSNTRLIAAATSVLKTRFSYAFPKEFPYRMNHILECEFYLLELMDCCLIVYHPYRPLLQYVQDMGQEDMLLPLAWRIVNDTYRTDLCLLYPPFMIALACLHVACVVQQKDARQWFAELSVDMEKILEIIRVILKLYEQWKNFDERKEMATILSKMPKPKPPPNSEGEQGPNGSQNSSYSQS
In series [4] the test system is A549. The series is described as follows: Antiproliferative activity against human A549 cells assessed as inhibition of cell growth measured after 72 hrs by SRB assay. Type of series: functional. (In general: Sulforhodamine B stains cellular protein and so reports cell mass.)
Series [5] concerns MDA-MB-231. As to the kind of experiment: Antiproliferative activity against human MDA-MB-231 cells assessed as inhibition of cell growth measured after 72 hrs by SRB assay. Type of series: functional.
The test system of series [6] is KB. The series is described as follows: Antiproliferative activity against human KB cells assessed as inhibition of cell growth measured after 72 hrs by SRB assay. Type of series: functional.
Series [7] can be described thus: Antiproliferative activity against human KB-VIN cells assessed as inhibition of cell growth measured after 72 hrs by SRB assay. Type of series: functional. To be noted: KBVIN.
The test system of series [8] is MCF7. The series is described as follows: Antiproliferative activity against human MCF7 cells assessed as inhibition of cell growth measured after 72 hrs by SRB assay. Type of series: functional.
A short description of series [9]: Toxicity in BALB/c mouse xenografted with human HCT-116 cells assessed as mortality at 150 mg/kg, po measured after 14 days. The note with it: in vivo, 336 h, time 14 day. Type of series: organism-based. For orientation: A xenograft is tissue or cells of one species grown in another, often human tumour cells in immunodeficient mice.
The nature of series [10]: Toxicity in BALB/c mouse xenografted with human HCT-116 cells assessed as changes in body weight at 150 mg/kg, po measured after 14 days. The note with it: in vivo, 336 h, time 14 day. Type of series: organism-based.
The test system of series [11] is HCT-116. As to the kind of experiment: Antitumour activity against human HCT-116 cells assessed as decrease in tumor volume at 150 mg/kg, po measured after 14 days relative to control. Also on record: scale not given: the % may be the effect or the level left. To be noted: time 14 day. Type of series: functional.
The nature of series [12]: AUC (0 to 24h) in ICR mouse at 150 mg/kg, po measured after 24 hrs by LC-MS/MS analysis. Type of series: ADME, organism-based. The arrangement: route oral, dose 150 mg/kg, time 24 hrs. The note with it: in vivo.
Series [13] in a line: MRT (0 to 24h) in ICR mouse at 150 mg/kg, po measured after 24 hrs by LC-MS/MS analysis. Type of series: ADME, organism-based. To be noted: in vivo.
Series [14] can be described thus: Half-life in ICR mouse at 150 mg/kg, po measured after 24 hrs by LC-MS/MS analysis. Type of series: ADME, organism-based. To be noted: in vivo.
Series [15] can be described thus: Tmax in ICR mouse at 150 mg/kg, po measured after 24 hrs by LC-MS/MS analysis. Type of series: ADME, organism-based. To be noted: in vivo.
The nature of series [16]: Cmax in ICR mouse at 150 mg/kg, po measured after 24 hrs by LC-MS/MS analysis. Type of series: ADME, organism-based. Also on record: route oral, time 24 hrs, dose 150 mg/kg. The note with it: in vivo.
Series [17] has as its system MDA-MB-231. As to the kind of experiment: Induction of cell cycle arrest in human MDA-MB-231 cells assessed as accumulation of cells at G2/M phase measured after 24 hrs by PI staining based flow cytometry assay. Type of series: functional.
In series [18] the target is Cyclin-dependent kinase 8 (Homo sapiens) (UniProt P49336). The series is described as follows: Inhibition of CDK8 (unknown origin) at 10 uM.
Sequence of Cyclin-dependent kinase 8 (Homo sapiens) (P49336 whole entry): as the sequence (P49336 whole entry) above
For series [19], the target named is Cyclin-C/Cyclin-dependent kinase 19 (Homo sapiens, UniProt Q9BWU1). The series is described as follows: Inhibition of CDK19/Cyclin C (unknown origin). Type of series: protein-complex assay.
Sequence of Cyclin-C/Cyclin-dependent kinase 19 (Q9BWU1 whole entry): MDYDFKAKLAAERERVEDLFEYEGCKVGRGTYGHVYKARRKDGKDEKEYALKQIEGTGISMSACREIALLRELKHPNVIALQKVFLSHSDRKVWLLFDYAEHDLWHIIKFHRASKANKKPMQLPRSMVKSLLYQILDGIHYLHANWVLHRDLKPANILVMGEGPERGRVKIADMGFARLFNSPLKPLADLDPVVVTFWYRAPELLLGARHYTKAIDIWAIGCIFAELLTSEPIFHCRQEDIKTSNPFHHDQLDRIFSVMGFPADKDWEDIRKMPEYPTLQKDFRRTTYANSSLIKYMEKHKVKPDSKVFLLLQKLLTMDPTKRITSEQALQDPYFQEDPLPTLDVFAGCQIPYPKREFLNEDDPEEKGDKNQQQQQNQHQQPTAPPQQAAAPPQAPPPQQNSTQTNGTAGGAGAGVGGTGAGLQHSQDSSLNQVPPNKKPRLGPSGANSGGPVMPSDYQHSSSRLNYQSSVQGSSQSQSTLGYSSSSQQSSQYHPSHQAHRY
Sequence of Cyclin-C/Cyclin-dependent kinase 19 (P24863 whole entry, further chain): as the sequence (P24863 whole entry, further chain) above
Series [20] addresses Cyclin-dependent kinase 7 (Homo sapiens) (UniProt P50613). As to the kind of experiment: Inhibition of CDK7 (unknown origin) at 10 uM.

Calls of active or inactive are those of the source. Where only a bound is given, the exact number is not on record here.

As a reminder, the inhibition is the relative decrease from the control value, in per cent. For orientation: GI50 means the concentration at which growth is held to half of that of the control. For orientation: IC50 means the concentration needed to halve the response being measured. In general, AUC(0-t) refers to the area under the concentration-time curve up to a stated or last time point. What is called MRT last is a mean duration of stay, worked out from the concentration-time curve. As a reminder, the half-life is the time needed for the level to fall by half in the phase considered. As a reminder, the Tmax is the time from dosing to the highest level. The Cmax is the peak of the concentration-time curve.

Sequence of Cyclin-dependent kinase 7 (Homo sapiens) (P50613 whole entry): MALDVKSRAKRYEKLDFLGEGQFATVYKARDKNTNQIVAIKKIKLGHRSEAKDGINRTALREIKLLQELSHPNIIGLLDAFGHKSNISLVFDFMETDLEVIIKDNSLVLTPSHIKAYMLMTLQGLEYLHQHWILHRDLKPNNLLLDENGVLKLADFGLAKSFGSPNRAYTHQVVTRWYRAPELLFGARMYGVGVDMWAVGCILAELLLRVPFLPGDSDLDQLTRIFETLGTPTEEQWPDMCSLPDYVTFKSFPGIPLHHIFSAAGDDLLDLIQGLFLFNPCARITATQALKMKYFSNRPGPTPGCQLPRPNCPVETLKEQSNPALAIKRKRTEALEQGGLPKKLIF

On to `COC(=O)/C=C/c1ccncc1-c1ccc2ccccc2c1`, for which the inhibition in series [1] amounted to 102%. For the same molecule, the GI50 was 0.35 µM in series [2]; 0.76 µM in series [4]; 4.71 µM in series [5]; 6.73 µM in [6]; 5.46 µM in series [7]; 8.17 µM in series [8]. This molecule also registered an IC50 in series [3] of 40.6 nM. In addition, the Activity entry is listed as “Non-Toxic” in series [9], “Non-Toxic” in series [10] and 44% in [11]. Moreover, the AUC(0-t) at 24 h in series [12] is 153 ng·h/mL. In series [13], this molecule showed an MRT last at 24 h of 2.68 h. This molecule showed a half-life in [14] of 236 min. The Tmax in series [15] is 34.2 min. In series [16], the Cmax turned out to be 46.6 ng/mL.
`CN(C)C(=O)/C=C/c1ccncc1-c1ccc2ccccc2c1`: in series [1], the inhibition was determined as 100%. The GI50 in [2] is 4.54 µM; in [4], 5.8 µM; in [5], 7.99 µM; in series [6], 7.76 µM; in [7], 4.93 µM; in series [8] it was 8.19 µM. Moreover, in [3], half-maximal inhibition (IC50) required 30.1 nM. The Activity result in series [17] was “Dose-Dependent Effect”.
`CN1CCN(C(=O)/C=C/c2ccncc2-c2ccc3ccccc3c2)CC1`: in series [1], the inhibition came out at 101%. For the same molecule, the concentration for 50% growth inhibition (GI50) in [2] was > 30 µM; in [4] it was > 10 µM; in series [5] it was > 10 µM; in series [6] it was > 10 µM; in [7], > 10 µM; in series [8], > 10 µM. In [3], half-maximal inhibition (IC50) required 43.6 nM. The inhibition result in series [18] was “Active”.
Take `CNC(=O)/C=C/c1ccncc1-c1ccc2[nH]ccc2c1`: in series [1], the inhibition was 100%. Moreover, the concentration for 50% growth inhibition (GI50) in series [2] was > 30 µM; in series [4] it was > 10 µM; in series [5], > 10 µM; in [6], > 10 µM; in [7] it was > 10 µM; in series [8], > 10 µM. The same molecule showed a concentration for half-maximal inhibition (IC50) in series [3] of 51.9 nM. In addition, the inhibition result in [18] is “Active”.
Consider `CNC(=O)/C=C/c1ccncc1-c1ccc2ccccc2c1`, for which, in series [1], the inhibition is 101%. The GI50 in series [2] was 6.55 µM; in series [4], 6.62 µM; in series [5] it was 8.68 µM; in series [6] it was > 10 µM; in series [7] it was 7.66 µM; in [8], 9.34 µM. The molecule also returned an IC50 in series [3] of 12.4 nM. In addition, in series [18], the inhibition result was “Active”.
Consider `O=C(O)/C=C/c1ccncc1-c1ccc2ccccc2c1`, for which the inhibition in series [1] turned out to be 102%. The concentration for 50% growth inhibition (GI50) is > 30 µM in series [2]; > 10 µM in [4]; > 10 µM in series [5]; > 10 µM in series [6]; > 10 µM in [7]; > 10 µM in series [8]. The molecule further came in with an IC50 in series [3] of 5 nM. Also, in series [18], the inhibition result is “Active”.
`O=C(/C=C/c1ccncc1-c1ccc2ccccc2c1)N1CCOCC1`: the inhibition in series [1] turned out to be 99%. In addition, the GI50 in series [2] is 6.04 µM; in [4], 8.41 µM; in series [5], 8.98 µM; in series [6], > 10 µM; in [7], 8.48 µM; in [8] it was > 10 µM. Further, the IC50 in [3] came to 60.3 nM. Also, the inhibition entry in [18] is “Active”.
Turning to `CNC(=O)/C=C/c1ccncc1-c1ccc2cc[nH]c2c1`, in series [1], the inhibition worked out at 103%. Also, the GI50 in series [2] was 10.3 µM; in series [4], 7.84 µM; in [5], 7.68 µM; in [6] it was > 10 µM; in series [7] it was 10.9 µM; in series [8], 9.23 µM. The IC50 in [3] is 18.6 nM; in series [19] it was 28.2 nM. The inhibition result in series [18] is “Active”.
For the molecule `CNC(=O)/C=C/c1ccncc1-c1ccc2c(cnn2C)c1`, in series [1], the inhibition stood at 98%. The GI50 in series [2] is 3.48 µM; in series [4] it was > 10 µM; in series [5], > 10 µM; in series [6], > 10 µM; in [7], > 10 µM; in [8], > 10 µM. In series [3], this molecule yielded an IC50 of 86.7 nM. Moreover, in series [18], the inhibition result is “Active”.
For `CCOC(=O)/C=C/c1ccncc1-c1ccc2cc[nH]c2c1`, the inhibition in series [1] came to 104%. Further, the GI50 in [2] amounted to 2.14 µM; in [4] it was 5.74 µM; in series [5], 7.98 µM; in [6], 7.86 µM; in series [7] it was 7.7 µM; in series [8] it was 6.88 µM. Besides, the IC50 in [3] came to 12.1 nM; in series [19], 45.7 nM. Besides, the inhibition entry in series [18] was “Active”.
As for `O=C(/C=C/c1ccncc1-c1ccc2cc[nH]c2c1)N1CCOCC1`, in [1], the inhibition was found to be 102%. Further, the GI50 is > 30 µM in series [2]; > 10 µM in [4]; > 10 µM in [5]; > 10 µM in series [6]; > 10 µM in series [7]; > 10 µM in series [8]. This molecule also registered an IC50 in [3] of 43.9 nM. For the same molecule, the inhibition result in [18] and in [20] was “Active” each time.
